According to patent US10363231B2, “Compounds and methods of treating ocular disorders” (CASE WESTERN RESERVE UNIVERSITY, priority 2014, dated 2019):

Target: T1, LRAT (Bos taurus, UniProt Q9BGL2)
T1 construct: incubated with RPF microsomes that served as a source of LRAT enzymatic activity; from tissue; host or cells: bovine retinal pigment epithelium (RPE) microsomes
T1 sequence (Q9BGL2 1-230): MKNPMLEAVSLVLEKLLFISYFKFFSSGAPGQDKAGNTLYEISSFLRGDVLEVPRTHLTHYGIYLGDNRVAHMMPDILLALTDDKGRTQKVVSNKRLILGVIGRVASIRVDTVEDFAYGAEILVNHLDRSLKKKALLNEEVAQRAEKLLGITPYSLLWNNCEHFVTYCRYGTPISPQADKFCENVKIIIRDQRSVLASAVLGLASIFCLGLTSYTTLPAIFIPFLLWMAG
Assay: LRAT activity assay with bovine RPE microsomes (esterification of the corresponding primary alcohols)
Format: biochemical
Details: percentage of the corresponding primary alcohol esterified by LRAT in 1 h at 37° C; 10 μM; RPE microsomes
Protocol: (§1) Bovine RPE microsomes were isolated from RPE homogenates by differential centrifugation as previously described. The resulting microsomal precipitate was resuspended in 10 mM Bis-Tris propane/HCl buffer, pH 7.4, to achieve a total protein concentration of […]. Then the mixture was placed in a quartz cuvette and irradiated for 6 min at 4° C. with a ChromatoUVE transilluminator (model TM-15; UVP) to eliminate residual retinoids. After irradiation, DTT was added to the RPE microsomal mixture to achieve a final concentration of 5 mM.
Two μl of a synthesized primary alcohol or amine dissolved in DMF (final concentration 10 μM) and 2 μl of 1,2-diheptanoyl-sn-glicerol-3-phosphocholine (water, final concentration 1 mM) were added to 200 μl of 10 mM Bis-Tris propane/HCl buffer, pH 7.4, containing 150 μg of RPE microsomes and 1% (v/w) BSA. The resulting mixture was incubated at 37° C. for 1 h. The reaction was quenched by adding 300 μl of methanol. Most reaction products were extracted with 300 μl of hexanes, except for products from the QEA-C-006 and QEA-G groups which were extracted by adding 300 μl of ethyl acetate and 300 μl of water.
Reaction products were separated and quantified by normal phase HPLC (Agilent Sil 5 μm, 4.6 mm×250 mm) in stepwise gradient of ethyl acetate in hexanes (0-15 min, 10%; 20-30 min, 30%) at a flow rate of 1.4 ml·min^−1.
The properties of retinoid derivatives were examined by two standard enzymatic tests, the […] and retinoid isomerization assays. To identify substrates of LRAT, aldehydes were reduced by sodium borohydrate to their corresponding primary alcohols that then were directly used in the esterification assay (FIG. 2B).
The alcohols were incubated with RPF microsomes that served as a source of LRAT enzymatic activity. Products of the enzymatic reaction as well as the remaining substrates were extracted with organic solvents and analyzed by HPLC. The ratio between a substrate and its esterified form was used to measure enzymatic activity efficiency, based on equivalent UV absorption of the substrate and product at their specific UV maxim wavelengths. Compounds classified as ‘good’ LRAT substrates converted at least 50% of their available alcohol substrates into corresponding esters under these experimental conditions, whereas marginal LRAT substrates were converted at less than 5%. Alcohols with a 5-50% conversion ratio were classified as weak substrates. Among 35 tested compounds, 23 were categorized as good and 9 as weak substrates; 3 compounds were not esterified by LRAT (Table 1 and FIG. 2C). […] Moreover, breaking double bond conjugation along the polyene chain or deletion of a C9 and/or a C13 methyl group also was allowed.

SMILES | LRAT Substrate
CC(C)(C)C(=C\C=C\CN)/C=C/c1ccc2c(c1)CCCC2 [TEA-C-001-NH2] | 0%
COc1ccc(C(=C\C=C\C(C)=C\CN)/C=C/c2cccnc2)cc1 [QEA-G-002-NH2] | 100%
CC1=C(/C=C/C(C)=C/C=C/CN)C(C)(C)CC=C1 [TEA-A-002-NH2] | 100%
CC(C)(C)C(=C\CN)/C=C/C=C(/C=C/C1=CCCCC1)C(C)(C)C [QEA-B-005-NH2] | 0%
CC1=C(/C=C/C(C)=C/C=C/C(C)=C/CN)C(C)(C)CCC1O (centres unmarked) [QEA-A-002-NH2] | 100%
CC(/C=C/C=C(/C=C/c1ccc2c(c1)CCCC2)C(C)(C)C)=C\CN [QEA-C-002-NH2] | 15%
NC/C=C/C=C(/C=C/C1=CCCCC1)c1ccccc1 [TEA-B-004-NH2] | 30%
CC1=C(/C=C/C(=C/C=C/CN)C(C)(C)C)C(C)(C)CCC1 [TEA-B-001-NH2] | 100%
CC1=C(/C=C/C(C)=C/C=C/C=C/CN)C(C)(C)CCC1 [QEA-A-004-NH2] | 100%
CC1=C(/C=C/C(C)=C/C=C/C(C)=C/CN)C(C)(C)CC(O)C1 (centres unmarked) [QEA-A-003-NH2] | 100%
CC1=C(/C=C/C(=C/C=C/C(=C/CN)C(C)(C)C)C(C)(C)C)C(C)(C)CCC1 [QEA-B-004-NH2] | 0%
CC(/C=C/C=C1/C=C(C2=CCCCC2)CCC1)=C\CN [QEA-D-001-NH2] | 100%
CC(/C=C/C=C1/C=C(c2cccnc2)CCC1)=C\CN [QEA-G-001-NH2] | 100%

Target: T2, RPE65 (Bos taurus, UniProt Q28175)
T2 construct: from tissue; host or cells: bovine retinal pigment epithelium (RPE) microsomes
Assay: Retinoid isomerase activity assay (11-cis-retinol production in RPE microsomes)
Format: biochemical, Bovine
Details: primary amine; decline in 11-cis-retinol production in RPE microsomes; read-out: Inhibition of RPE65
Protocol: as §1
[…] The resulting mixture was pre incubated at room temperature for 5 min. Then 1 μl of all-trans-retinol (in DMF, final concentration 20 μM) was added. The resulting mixture was incubated at 37° C. for 15 min to 2 h. The reaction was quenched by adding 300 μl of methanol, and products were extracted with 300 μl of hexanes. Production of 11-cis-retinol was quantified by normal phase HPLC with 10% (v/v) ethyl acetate in hexanes as the eluent at a flow rate of 1.4 ml·min^−1. Retinoids were detected by monitoring their absorbance at 325 nm and quantified based on a standard curve representing the relationship between the amount of 11-cis-retinol and the area under the corresponding chromatographic peak.
Primary amines of compounds derived from the aldehydes were subsequently tested for their ability to inhibit the RPE65-dependent retinoid isomerization reaction in dose- and time dependent reactions as exemplified by QEB-B-001 (FIG. 3B). Amines were incubated with RPE microsomes in the presence of all-trans-retinol and the 11-cis-retinoid binding protein, CRALBP.
Progress of the enzymatic reaction was monitored by HPLC separation of retinoids and quantification of 11-cis-retinol with a decrease of 11-cis-retinol production reflecting inhibition of RPE65 by a tested amine. […] This moderate inhibition could be enhanced by shortening the polyene chain length (TEA amines) or diminished by introducing an extra positive charge into the tested compounds (QEA-G amines).

T2 sequence (Q28175 whole entry): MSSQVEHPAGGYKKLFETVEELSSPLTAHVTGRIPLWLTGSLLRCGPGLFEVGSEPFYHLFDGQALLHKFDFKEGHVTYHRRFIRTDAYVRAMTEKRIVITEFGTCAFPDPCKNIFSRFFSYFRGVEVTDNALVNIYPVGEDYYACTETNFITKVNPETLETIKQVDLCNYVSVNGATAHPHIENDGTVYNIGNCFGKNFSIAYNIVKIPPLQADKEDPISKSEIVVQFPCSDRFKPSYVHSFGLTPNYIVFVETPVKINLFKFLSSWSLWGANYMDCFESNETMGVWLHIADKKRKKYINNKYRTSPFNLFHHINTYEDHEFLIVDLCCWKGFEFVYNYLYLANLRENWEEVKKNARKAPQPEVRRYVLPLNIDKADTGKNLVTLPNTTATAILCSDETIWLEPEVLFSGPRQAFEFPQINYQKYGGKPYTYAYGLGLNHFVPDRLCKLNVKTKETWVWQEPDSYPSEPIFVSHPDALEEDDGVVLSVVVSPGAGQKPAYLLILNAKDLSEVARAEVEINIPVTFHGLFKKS

SMILES | IC50
COc1ccc(C(=C\C=C\C(C)=C\CN)/C=C/c2cccnc2)cc1 [QEA-G-002-NH2] | 10 to 100 µM
CC1=C(/C=C/C(C)=C/C=C/CN)C(C)(C)CC=C1 [TEA-A-002-NH2] | < 10 µM
CC1=C(/C=C/C(C)=C/C=C/C(C)=C/CN)C(C)(C)CCC1O (centres unmarked) [QEA-A-002-NH2] | < 10 µM
CC(/C=C/C=C(/C=C/c1ccc2c(c1)CCCC2)C(C)(C)C)=C\CN [QEA-C-002-NH2] | > 200 µM
NC/C=C/C=C(/C=C/C1=CCCCC1)c1ccccc1 [TEA-B-004-NH2] | > 200 µM
CC1=C(/C=C/C(=C/C=C/CN)C(C)(C)C)C(C)(C)CCC1 [TEA-B-001-NH2] | > 200 µM
CC1=C(/C=C/C(C)=C/C=C/C=C/CN)C(C)(C)CCC1 [QEA-A-004-NH2] | < 10 µM
CC1=C(/C=C/C(C)=C/C=C/C(C)=C/CN)C(C)(C)CC(O)C1 (centres unmarked) [QEA-A-003-NH2] | < 10 µM
CC(/C=C/C=C1/C=C(C2=CCCCC2)CCC1)=C\CN [QEA-D-001-NH2] | > 200 µM
CC(/C=C/C=C1/C=C(c2cccnc2)CCC1)=C\CN [QEA-G-001-NH2] | 10 to 100 µM
